Each block holds one compound with its values, some of them ahead of it.
Experiments:
[1] = tested on: adult osteoarthritic rats; experiment: MIA-OA osteoarthritis pain model, hind limb grip force; type: in vivo, Male Sprague Dawley rats; settings: Rattus norvegicus, 480 h, read-out: % Effect; for inhibition in vivo at 1 mg/kg: 1 mg/kg i.p.; for inhibition in vivo at 3 mg/kg: 3 mg/kg i.p.
Protocol: This model, the MIA-OA model is well known to those skilled in the art. A general review of various models of pain is found in Joshi and Honore, Expert Opinion in Drug Discovery (2004) 1, pp. 323-334, and in the book ‘Drug Discovery and Evaluation, 2nd edition’ (H. Gerhard Vogel, editor; Springer-Verlag, New York, 2002; pp. 702-706).
Pain behavior was assessed by measurement of hind limb grip force (GF) in adult osteoarthritic rats. Male Sprague Dawley rats, 325-350 g, were injected in the unilateral knee join with a single intra-articular injection of sodium monoiodoacetate (MIA). All rats were tested at 20 days following MIA injection. A behavioral measure of activity-induced pain was carried out. Measurements of the peak hind limb grip force were conducted by recording the maximum compressive force (CFmax), in grams of force, exerted on a hind limb strain gauge setup, in a commercially available grip force measurement system (Columbus Instruments, Columbus, Ohio).
During testing, each rat was gently restrained by grasping it around its rib cage and then allowed to grasp the wire mesh frame attached to the strain gauge. The experimenter then moved the animal in a rostral-to-caudal direction until the grip was broken. Each rat was sequentially tested twice at approximately 2-3 min interval to obtain a raw mean grip force (CFmax). This raw mean grip force data was in turn converted to a maximum hindlimb cumulative compressive force (CFmax), as the grams of force/kg of body weight, for each animal.
For evaluating the compound effects, the hind limb grip force was conducted 20 days following the intra-articular injection of MIA. A group of age-matched naïve (not injected with MIA) animals was added as a comparator to the drug-dosed groups. The vehicle control response for each group of MIA-treated animals was defined as the 0% response (0% effect), whereas the naïve control group was defined as the normal response and as 100% effect. The % effects for each dose group was expressed as % return of response to normalcy, compared to the naïve group. That is, the % effect=(Treatment CFmax−Vehicle CFmax)/Vehicle CFmax]×100). Higher % effect numbers indicate increased relief from the pain in the model, with 100% indicating a return to the level of response seen in normal (non-osteoarthritic) animals. All experiments evaluating drug effects in this model were conducted in a randomized blinded fashion.
Male Sprague Dawley rats (250-300 g body weight) obtained from Charles River Laboratories (Wilmington, Mass.) were used for all experiments, unless indicated otherwise. The animals were housed in Association for Assessment and Accreditation of Laboratory Animal Care (AAALAC) approved facilities at Abbott Laboratories in a temperature-regulated environment under a controlled 12-h light-dark cycle, with lights on at 6:00 a.m. Food and water were available ad libitum at all times except during testing. All testing was done following procedures outlined in protocols approved by Abbott Laboratories' Institutional Animal Care and Use Committee.

[2] = ip, hind limb grip force (CFmax) 20 days after intra-articular MIA, % return to normalcy vs naive, mean ± SEM

melting point: 127 to 128 °C
SMILES: O=c1cccnn1-c1ccc2nc([C@H]3C[C@@H](N4CCCCC4)C3)sc2c1 [Example 1, Cis-2-[2-(3-piperidin-1-ylcyclobutyl)-1,3-benzothiazol-6-yl]pyridazin-3(2H)-one]
inhibition in vivo at 1 mg/kg [1, 2]: 51 ± 6%
inhibition in vivo at 3 mg/kg [1, 2]: 79 ± 6%

SMILES: O=c1cccnn1-c1ccc2nc([C@H]3C[C@H](N4CCCCC4)C3)sc2c1 [Example 2, Trans-2-[2-(3-piperidin-1-ylcyclobutyl)-1,3-benzothiazol-6-yl]pyridazin-3(2H)-one]
inhibition in vivo at 3 mg/kg [1, 2]: 43 ± 13%

SMILES: O=C1[C@@H](O)CCN1c1ccc2nc(C3CC(N4CCCCC4)C3)sc2c1 (stereo partly drawn) [Example 3, (S)-3-Hydroxy-1-[2-(3-piperidin-1-yl-cyclobutyl)-benzothiazol-6-yl]-pyrrolidin-2-one]
inhibition in vivo at 1 mg/kg [1, 2]: 26 ± 2%
inhibition in vivo at 3 mg/kg [1, 2]: 53 ± 5%

SMILES: C[C@@H]1CCCN1CCc1cc2cc(-c3ccc(C#N)cc3)ccc2o1 [Example 4, (4-(2-(2-[2(R)-Methyl-1-pyrrolidinyl]ethyl)-1-benzofuran-5-yl)benzonitrile)]
inhibition in vivo at 1 mg/kg [1, 2]: 40 ± 4%
inhibition in vivo at 3 mg/kg [1, 2]: 56 ± 6%

SMILES: CNC(=O)c1ccc(Oc2ccc3c(c2)CCN(C2CCC2)CC3)nc1 [Example 5, (6-(3-Cyclobutyl-2,3,4,5-tetrahydro-1H-benzo[d]azepin-7-yloxy)-N-methyl-nicotinamide), reference compound]
inhibition in vivo at 1 mg/kg [1, 2]: 54 ± 5%
inhibition in vivo at 3 mg/kg [1, 2]: 74 ± 4%

SMILES: CNC(=O)c1cnc(Oc2ccc3c(c2)CCN(C2CCC2)CC3)cn1 [Example 6, (5-(3-cyclobutyl-2,3,4,5-tetrahydro-1H-benzo[d]azepin-7-yloxy)-N-methylpyrazine-2-carboxamide), reference compound]
inhibition in vivo at 1 mg/kg [1, 2]: 65 ± 9%
inhibition in vivo at 3 mg/kg [1, 2]: 90 ± 17%

SMILES: CC(C)N1CCCN(C(=O)C2CCN(c3ccc(C(F)(F)F)nc3)CC2)CC1 [Example 7, (4-isopropyl-1,4-diazepan-1-yl)(1-(6-(trifluoromethyl)pyridin-3-yl)piperidin-4-yl)methanone, reference compound]
inhibition in vivo at 1 mg/kg [1, 2]: 51 ± 8%
inhibition in vivo at 3 mg/kg [1, 2]: 66 ± 6%

SMILES: C[C@H]1CCCN1C[C@H]1C[C@@H]1c1ccc(-n2ncccc2=O)cc1 [Example 8, 2-[4-((1S,2S)-2-{[(2S)-2-methylpyrrolidin-1-yl]methyl}cyclopropyl)phenyl]pyridazin-3(2H)-one]
inhibition in vivo at 1 mg/kg [1, 2]: 47 ± 6%
inhibition in vivo at 3 mg/kg [1, 2]: 68 ± 4%
inhibition in vivo at 10 mg/kg ([1]; ip, 10 mg/kg i.p., hind limb grip force (CFmax) 20 days after intra-articular MIA, % return to normalcy vs naive, mean ± SEM): 82 ± 5%

SMILES: Cc1ccc(-c2cc(C(F)(F)F)nn2-c2ccc(S(N)(=O)=O)cc2)cc1 [celecoxib, reference compound]
inhibition in vivo at 30 mg/kg ([1]; 30 mg/kg, positive control, hind limb grip force 20 days after MIA): 89%

Reference: patent publication US9186353B2, “Treatment of osteoarthritis pain” (AbbVie Inc., priority 2009, dated 2015)
